Experimental data: ChEMBL document CHEMBL2331291, “Targeting CCR2 Receptor To Treat Inflammation Diseases and Disorders” (ACS Med Chem Lett, 2013)
pKi: −log10 of the molar value.

Legend:
[1] = biological target: C-C chemokine receptor type 5 (Homo sapiens, UniProt P51681); assay: Displacement of [125I]RANTES from human CCR5 expressed in CHO cell membranes coexpressing Gal6 after 6 hrs by scintillation counting analysis
[2] = biological target: C-C chemokine receptor type 2 (Homo sapiens, UniProt P41597); assay: Displacement of [125I]MCP1 from CCR2 in human THP1 cell membranes after 8 hrs by scintillation counting analysis; parameters: species or system THP-1
Chain of C-C chemokine receptor type 2 (P41597 whole entry): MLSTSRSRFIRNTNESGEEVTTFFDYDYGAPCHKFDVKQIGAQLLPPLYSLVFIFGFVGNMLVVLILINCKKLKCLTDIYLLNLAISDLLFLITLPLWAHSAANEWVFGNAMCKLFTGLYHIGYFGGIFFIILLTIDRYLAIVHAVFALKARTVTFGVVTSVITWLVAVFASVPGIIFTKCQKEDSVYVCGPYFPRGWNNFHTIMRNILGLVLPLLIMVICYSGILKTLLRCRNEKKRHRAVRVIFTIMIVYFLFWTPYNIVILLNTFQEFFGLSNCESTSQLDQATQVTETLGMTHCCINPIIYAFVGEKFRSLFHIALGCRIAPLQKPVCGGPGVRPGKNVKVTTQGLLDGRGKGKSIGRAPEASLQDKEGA

Chain of C-C chemokine receptor type 5 (P51681 whole entry): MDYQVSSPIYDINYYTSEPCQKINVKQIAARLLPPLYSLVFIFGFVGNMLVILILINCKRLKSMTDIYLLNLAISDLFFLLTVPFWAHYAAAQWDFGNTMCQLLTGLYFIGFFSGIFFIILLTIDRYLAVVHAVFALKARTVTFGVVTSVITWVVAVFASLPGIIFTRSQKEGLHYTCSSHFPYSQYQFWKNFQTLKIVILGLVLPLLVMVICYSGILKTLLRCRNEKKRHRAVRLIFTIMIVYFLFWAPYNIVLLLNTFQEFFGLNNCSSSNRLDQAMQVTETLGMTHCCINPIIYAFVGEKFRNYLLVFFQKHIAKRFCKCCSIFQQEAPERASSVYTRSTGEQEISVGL

Question: With `CO[C@@H]1COCC[C@@H]1NC1CCN(C(=O)c2nc(C(F)(F)F)nc(N3CCc4cc(C(F)(F)F)ccc4C3)c2C)CC1` as the compound, how does the pKi [1] read?
Answer: 6.82

Question: And the pKi [2]?
Answer: 8.70
